This is an account of results in patent US10253024B2, “Polycyclic indoline and indolenine compounds” (The Regents of the University of Colorado, a body corporate, priority 2015, dated 2019).

Molecules are shown by their SMILES. ≈ marks a conversion by molar mass, not a printed value. Where a name gives a salt, the structure may show the parent alone.

One series concerns MRSA BAA-44. In words: MIC of antibiotics in absence and presence of 11b (broth microdilution). Type of series: cell-based, S. aureus. The conditions noted are these: for Fold of potentiation: MIC alone versus with 10 μM 11b; for MIC: Staphylococcus aureus, antibiotic alone; for MIC (+11b): in the presence of 10 μM 11b. From the text:
The MICs of a variety of antibiotics in the presence and absence of 11b, respectively. In addition to methicillin, BAA-44 is also resistant to a wide range of antibiotics, such as tetracycline, erythromycin, and daptomycin. As shown in Table 2-3, compound 11b potentiates the activity of all β-lactams tested, such as oxacillin, amox/clav, cefazolin, and meropenem. Without being bound by any theory, it is believed compound 11b and other compounds of the invention are selective potentiators of β-lactams.
(§1) The minimal inhibitory concentrations (MICS) of antimicrobial compounds and 11b were determined by the broth microdilution method detailed in the Clinical and Laboratory Standards Institute (CLSI) handbook. All antimicrobial compounds were purchased from Sigma-Aldrich. The growth media used for all MIC experiments was Mueller Hinton Broth (MHB) purchased from HIMEDIA through VWR (cat: 95039-356). The inoculum was prepared by diluting a bacterial day culture (OD600 0.15-0.4) to OD600 0.002. This dilution was further diluted two fold when added to 96 well microplates (USA Scientific CytoOne 96-well TC plate, cat: CC7682-7596) for a final inoculum concentration of OD600 0.001. All plates were incubated at 37° C. with shaking for 18 hours before results were interpreted.
The MRSA strain ATCC BAA-44 was used to determine the MIC values of various antimicrobial compounds in the presence of 10 μM 11b. The experiment was conducted similarly to the CLSI MIC determination described previously; however, MHB was supplemented with 20 μM 11b prior to set up and inoculation. The final concentration of 11b after inoculation with BAA-44 was 10 μM.
Background: Dilution methods test growth across graded concentrations, often in twofold steps.

The subject of series [1] is multi-drug resistant MRSA strain, ATCC BAA-44. In words: Minimum re-sensitizing concentration (MRC) for cefazolin. The format is cell-based, S. aureus. The conditions noted are these: MRSA ATCC BAA-44; re-sensitizing to cefazolin. As to the method:
(§2) ATIs 11-14 represent a wide range of clogD values and their minimum re-sensitizing concentrations (MRCS) for cefazolin (i.e., a first-generation cephalosporin) and amoxicillin/clavulanic acid (i.e., Augmentin, amox/clav) was evaluated as well as their minimum inhibitory concentrations (MICs) in a multi-drug resistant MRSA strain, ATCC BAA-44. Any compounds with promising MRC and MIC were then evaluated for potential mammalian toxicity by determining their half growth inhibitory concentrations (GI50) in human cervical adenocarcinoma (HeLa) cells.
(§3) Antibiotic MIC values where S. aureus is considered susceptible were determined from the CLSI handbook. MHB was supplemented with the antimicrobial at a concentration two fold greater than the CLSI susceptible MIC value. Two-fold serial dilutions of 11b were prepared in antibiotic supplemented media in 96-well microplates. These were inoculated with MRSA diluted to OD600 0.002 and incubated at 37° C. with shaking for 18 hours before results were interpreted. The concentration of 11b in antibiotic supplemented media at which there was no observable growth was considered the minimum resensitizing concentration (MRC). For amoxicillin/clavulanic acid, the initial concentration was 8/4 μg/mL; for cefazolin, 16 μg/mL. A 50 μL portion of the antibiotic containing media was added to each well of 96-well plates, and 100 μL was added to the top row. A 1.28 μL portion of 5 mg/mL 11b was added to the top row of each plate to afford a concentration of 64 μg/mL in the top row of each plate, and 2-fold serial dilutions were performed down the columns. Once the plates were prepared, a day culture of MRSA was diluted to OD600 0.002, and 50 μL was added to each well. The final concentration of MRSA added was OD600 0.001, the final concentration of amoxicillin/clavulanic acid was 4/2 μg/mL, the final concentration of cefazolin was 8 μg/mL, and the highest concentration of 11b tested was 32 μg/mL. Plates were incubated overnight at 37° C. with shaking. The MRC value was determined as the concentration of 11b in the presence of antibiotic at which there was no observable overnight growth.

Series [2] shares this test system. In words: Minimum re-sensitizing concentration (MRC) for amoxicillin/clavulanic acid. Type of series: cell-based, S. aureus. The conditions noted are these: MRSA ATCC BAA-44; re-sensitizing to amoxicillin/clavulanic acid. As to the method:
as §2, §3

The test system is the same in series [3]. In words: Minimum inhibitory concentration (MIC) of the compound alone. Type of series: cell-based, S. aureus. The conditions noted are these: for MIC: Staphylococcus aureus, MRSA ATCC BAA-44, compound alone; for antibacterial activity on its own (in words): MRSA BAA-44. As to the method: as §2, §1
Series [4] relates to MRSA strains NRS-100 and NRS-384, VRSA strain NR-46414. In words: MRC of 13 in further MRSA/VRSA strains. Type of series: cell-based, S. aureus. The conditions noted are these: community-acquired MRSA NRS-100, NRS-384 and VRSA NR-46414. On the procedure: Compound 14 is zwitterionic under physiological conditions and has even lower clogD value. Further evaluations of 13 in a variety of MRSA strains, such as community-acquired MRSA strains NRS-100 and NRS-384, and vancomycin-resistant S. aureus (VRSA) strain NR-46414, also gave a similar results (MRCs=2 μg mL^−1).
Antibiotic MIC values where S. aureus is considered susceptible were determined from the CLSI handbook. MHB was supplemented with the antimicrobial at a concentration two fold greater than the CLSI susceptible MIC value. Two-fold serial dilutions of 11b were prepared in antibiotic supplemented media in 96-well microplates. These were inoculated with MRSA diluted to OD600 0.002 and incubated at 37° C. with shaking for 18 hours before results were interpreted. The concentration of 11b in antibiotic supplemented media at which there was no observable growth was considered the minimum resensitizing concentration (MRC). For amoxicillin/clavulanic acid, the initial concentration was 8/4 μg/mL; for cefazolin, 16 μg/mL. A 50 μL portion of the antibiotic containing media was added to each well of 96-well plates, and 100 μL was added to the top row. […] The MRC value was determined as the concentration of 11b in the presence of antibiotic at which there was no observable overnight growth.

Series [5] can be described thus: In vivo pharmacokinetics and tolerability, single IP dose. The conditions noted are these: mouse. On the procedure: (§4) The physiochemical properties of various compounds were evaluated. […] In vivo pharmacokinetic (PK) properties of 13 was evaluated.
(§5) To test this, permeability assessments were performed using MDCK cells.

Series [6] in a line: Half growth inhibitory concentration (GI50), mammalian toxicity. The conditions noted are these: human, HeLa cells (human cervical adenocarcinoma). The format is cell-based. As to the method:
as §2
To evaluate the cytotoxicity of 11b in mammalian cells, a cell viability assay was carried out using CellTiter-Glo luminescent cell viability assay kit (Promega). Human cervical adenocarcinoma HeLa cells were seeded on white, cell-culture treated 96-well plates (Corning: 3917) with Dulbecco's modified Eagle's medium (DMEM) supplemented with 10% fetal calf serum (FCS), 1% penicillin/streptomycin, at the densities of 20,000 cells/well. The medium volume for each well was 100 μL. Cells were incubated at 37° C. in 5% CO2/95% air for 16 hours. The medium was removed from each well and replaced with 99 μL of warmed fresh medium. To each well was then added 1.0 μL of 11b in DMSO with the final concentrations of 1.56-200 μg/mL. Each concentrate was performed in two replicates. After incubation at 37° C. for another 24 hours, the plates were equilibrated to room temperature for 30 minutes. 100 μL of CellTiter-Glo reagent (Promega) was added to each well and mixed for 2 minutes on an orbital shaker. The plate was incubated at room temperature for another 10 minutes to stabilize luminescent signal. The luminescence of each sample was recorded in an Envision Multilabel Plate Reader (Perkin Elmer).

The nature of series [7]: Saturated concentration (aqueous solubility). The format is physicochemical. As to the method:
as §4

The nature of the next series: in vitro. The conditions noted are these: dog, MDCK. As to the method: as §5

For the compound `Cc1nnc(SCC2=C(C(=O)O)N3C(=O)[C@@H](NC(=O)Cn4cnnn4)[C@H]3SC2)s1` [Cefazolin], in the series on MRSA BAA-44, the Fold of potentiation is listed as 32, the MIC amounted to 128 µg/mL and the “MIC (+11b)” value was 4 µg/mL.

`C=C1CN(CC(=O)O)C[C@@H]2Nc3c(F)cc(Br)cc3[C@]12CCNS(=O)(=O)c1ccc(Cl)cc1` [Gly-ATI 14, 2-((4aS,9aR)-6-bromo-4a-(2-((4-chlorophenyl)sulfonamido)ethyl)-8-fluoro-4-methylene-1,3,4,4a,9,9a-hexahydro-2H-pyrido[3,4-b]indol-2-yl)acetic acid]: in [1], the “MRC Cef” value was over 32 µg/mL. Further, the “MRC Amox/clav” value in series [2] is over 32 µg/mL. Also, the MIC in [3] is over 32 µg/mL.

For `C=C1CN(C(=N)N)C[C@@H]2Nc3c(F)cc(Br)cc3[C@]12CCNS(=O)(=O)c1ccc(Cl)cc1` [Guan-ATI 13, (4aS,9aR)-6-bromo-4a-(2-((4-chlorophenyl)sulfonamido)ethyl)-8-fluoro-4-methylene-1,3,4,4a,9,9a-hexahydro-2H-pyrido[3,4-b]indole-2-carboximidamide], in [1], the “MRC Cef” value was found to be 2 µg/mL. In series [4], this compound had an MRCs of 2 µg/mL. Besides, in series [2], the “MRC Amox/clav” value amounted to 2 µg/mL. Also, the “plasma levels as multiple of MRC in MRSA” value in series [5] (in vivo, 30 min) is “approximately 4 ×MRC”. Further, in series [5] (plasma, 30 mg/kg), the AUC amounted to 18200 ng·h/mL, the Cmax came out at 8000 ng/mL and the half-life was 2.5 h. In series [3], the MIC worked out at 8 µg/mL (≈ 14.7 µM). The GI50 at 24 h in [6] came to 40 µg/mL (≈ 73.7 µM). In [7], the saturated concentration was 587 µg/mL and the “saturated concentration as fold of MRC in MRSA” value is given as about 300 fold. Besides, in “in vitro”, the Papp is 2.11 ×10⁻⁶ cm/s.

Take `C[C@@H](O)[C@H]1C(=O)N2C(C(=O)O)=C(S[C@@H]3CN[C@H](C(=O)N(C)C)C3)[C@H](C)[C@H]12` [Meropenem]: in the series on MRSA BAA-44, the Fold of potentiation is on record as 4, the MIC was 4 µg/mL and the “MIC (+11b)” value was 1 µg/mL.

For `COc1cccc(OC)c1C(=O)N[C@@H]1C(=O)N2[C@@H]1SC(C)(C)[C@@H]2C(=O)O` [Methicillin], in the series on MRSA BAA-44, the Fold of potentiation is 16, the MIC turned out to be 128 µg/mL and the “MIC (+11b)” value was 8 µg/mL.

For `C=C1CN(S(C)(=O)=O)C[C@@H]2Nc3c(F)cc(Br)cc3[C@]12CCNS(=O)(=O)c1ccc(Cl)cc1` [Ms-ATI 11b, N-(2-((4aS,9aR)-6-bromo-8-fluoro-4-methylene-2-(methylsulfonyl)-1,2,3,4,9,9a-hexahydro-4aH-pyrido[3,4-b]indol-4a-yl)ethyl)-4-chlorobenzenesulfonamide], the “MRC Cef” value in series [1] is over 32 µg/mL. In addition, in series [2], the “MRC Amox/clav” value is over 32 µg/mL. Besides, the MIC in series [3] was over 32 µg/mL.

Take `C=C1CNC[C@@H]2Nc3c(F)cc(Br)cc3[C@]12CCNS(=O)(=O)c1ccc(Cl)cc1` [NH-ATI 12, N-(2-((4aS,9aR)-6-bromo-8-fluoro-4-methylene-1,2,3,4,9,9a-hexahydro-4aH-pyrido[3,4-b]indol-4a-yl)ethyl)-4-chlorobenzenesulfonamide]: the “MRC Cef” value in series [1] worked out at 4 µg/mL. Also, the “MRC Amox/clav” value in series [2] amounted to 4 µg/mL. Moreover, in series [3], the “antibacterial activity on its own (in words)” value is recorded as “potent antibacterial activity on its own” and the MIC was 8 µg/mL (≈ 16 µM). The compound also showed a GI50 at 24 h in [6] of 6.7 µg/mL (≈ 13.4 µM).

Regarding `C=C1CN(S(=O)(=O)c2ccc([N+](=O)[O-])cc2)C[C@@H]2Nc3c(F)cc(Br)cc3[C@]12CCNS(=O)(=O)c1ccc(Cl)cc1` [Ns-ATI 11a, N-(2-((4aS,9aR)-6-bromo-8-fluoro-4-methylene-2-((4-nitrophenyl)sulfonyl)-1,2,3,4,9,9a-hexahydro-4aH-pyrido[3,4-b]indol-4a-yl)ethyl)-4-chlorobenzenesulfonamide], the “MRC Cef” value in series [1] was over 32 µg/mL. Also, the “MRC Amox/clav” value in series [2] was over 32 µg/mL. In series [3], this compound displayed a minimal inhibitory concentration (MIC) of over 32 µg/mL.

For `Cc1onc(-c2ccccc2)c1C(=O)N[C@@H]1C(=O)N2[C@@H]1SC(C)(C)[C@@H]2C(=O)O` [Oxacillin], in the series on MRSA BAA-44, the Fold of potentiation amounted to 32, the MIC was 32 µg/mL and the “MIC (+11b)” value turned out to be 1 µg/mL.

Regarding `C=C1CN(C(=O)C(F)(F)F)C[C@@H]2Nc3c(F)cc(Br)cc3[C@]12CCNS(=O)(=O)c1ccc(Cl)cc1` [TFA-ATI 11c, N-(2-((4aS,9aR)-6-bromo-8-fluoro-4-methylene-2-(2,2,2-trifluoroacetyl)-1,2,3,4,9,9a-hexahydro-4aH-pyrido[3,4-b]indol-4a-yl)ethyl)-4-chlorobenzenesulfonamide], the “MRC Cef” value in series [1] worked out at 4 µg/mL. Also, the “MRC Amox/clav” value in [2] turned out to be 4 µg/mL. Besides, in series [3], the “antibacterial activity on its own (in words)” value was “without observable antibacterial activity” and the MIC was over 32 µg/mL. The compound also had a GI50 at 24 h in series [6] of 19 µg/mL.

With `OC[C@@H](O)[C@@H](O)[C@H](O)[C@H](O)CO` [mannitol], the Papp in “in vitro” was 1.51 ×10⁻⁶ cm/s.

For the compound `COCCc1ccc(OCC(O)CNC(C)C)cc1` (stereo not drawn) [metoprolol], the Papp in “in vitro” amounted to 53.5 ×10⁻⁶ cm/s.

A word on the MIC: it is the lowest concentration that inhibits growth of the organism. As a reminder, the AUC is concentration integrated over time. Read a high AUC as high exposure. The Cmax is the highest concentration seen after dosing. The half-life is how long it takes for the measured level to halve. A low value points to fast loss. In general, GI50 refers to the concentration giving 50% growth inhibition. A higher GI50 goes with less potent growth inhibition. By Papp is commonly meant a coefficient for how fast a substance crosses the barrier. A lower Papp goes with poor permeation.
